Measurements: US5420157A, “Inhibitors of farnesyl protein transferase or prodrugs thereof” (Merck & Co., Inc., priority 1991, dated 1995)
Structures can show the parent of a compound that is named as a salt.

Tests used:
[1] = Equilibrium between diacid (10) and anhydride (9) in solution, pH dependence (UV); assay type: physicochemical; details: for Predominant form in anhydride/diacid equilibrium: in solution, pH dependent
Text: The equilibrium between diacid (10) and anhydride (9) in a solution is pH dependent. […] However, when basified with dil NaOH, this maximum shifted to ^λ max 243 nm. This shift is clear evidence of opening of the anhydride into the diacid.
(§1) The latter band under went a hypsochromic shift to […] after addition of dil NaOH.

[2] = molecular target: T1, Farnesyl-protein transferase (FTase) (Bos taurus, UniProt P29702+P49355); test: Inhibition of Ras farnesylation in vitro (FTase inhibition, Ras-CVLS and [3H]FPP); assay type: biochemical, bovine; details: for IC50: Ras-CVLS 3.5 μM, 0.25 μM [3H]FPP, partially purified FTase from bovine brain, assay buffer pH 7.5
T1 construct: Farnesyl-protein transferase (FTase) from bovine brain; from tissue; host or cells: bovine brain, partially purified (DEAE-Sephacel, N-octyl agarose, mono Q)
Method: The intrinsic farnesyl-protein transferase (FTase) activity of representative compounds of this invention was measured by the assay as described below:
Farnesyl-protein transferase (FTase) from bovine brain was chromatographed on DEAE-Sephacel (Pharmacia, 0-0.8M NaCl gradient elution), N-octyl agarose (Sigma, 0-0.6M NaCl gradient elution), and a mono Q HPLC column (Pharmacia, 0-0.3M NaCl gradient). Ras-CVLS (Cys-Val-Leu-Ser) at 3.5 μM, 0.25 μM [^3 H]FPP, and the indicated compounds were incubated with this partially purified enzyme preparation. The FTase inhibition data presented below is a measurement of the ability of the test compound to inhibit Ras farnesylation in vitro.

[3] = Reaction of anhydride (9) with CH3OH; assay type: physicochemical; details: methanolic solution
Text: as §1

Row | Compound | Form present under assay conditions ([1]; CH3OH-HEPES buffer (7:5), pH 7.5, UV maximum 243 nm) | Predominant form in anhydride/diacid equilibrium [1] | IC50 [2] | Reactivity with CH3OH [3] | RAS farnesyl transferase inhibitory activity of trapped diacid salt ([2]; open diacid form (10) trapped as diisopropylethylamine salt)
1 | CCCCCCCCCCCCCCC1=C(C)C(=O)OC1=O [Compound (9)] | exits in the open dicarboxylate form of compound (10) | predominates when the solution is acidic | 46 nM | reacts slowly with CH3 OH | 
2 | CCCCCCCCCCCCCC/C(C(=O)O)=C(\C)C(=O)O [diisopropylethylamine salt] |  |  |  |  | without any loss of RAS farnesyl transferase inhibitory activity
3 | CCCCCCCCCCCCCC/C(C(=O)O)=C(\C)C(=O)O [Compound (10)] |  | predominates when the solution is basic | 46 nM |  | 
